Activity calls are given as the source filed them. The calls are words filed in the database; no cut-off is given here. A value given as a limit tells only on which side of the number the result lay.

In one test the target is T1, Adenosine receptor A1 (Homo sapiens, UniProt P30542).
T1 sequence (P30542 whole entry): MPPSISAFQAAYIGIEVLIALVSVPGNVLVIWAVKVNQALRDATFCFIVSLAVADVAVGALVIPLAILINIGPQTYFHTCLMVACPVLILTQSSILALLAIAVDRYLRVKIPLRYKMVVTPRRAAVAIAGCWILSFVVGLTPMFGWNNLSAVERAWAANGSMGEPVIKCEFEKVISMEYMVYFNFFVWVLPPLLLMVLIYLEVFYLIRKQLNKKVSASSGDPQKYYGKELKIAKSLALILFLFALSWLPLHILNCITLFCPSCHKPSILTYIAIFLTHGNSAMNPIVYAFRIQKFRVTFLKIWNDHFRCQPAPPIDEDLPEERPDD
The experiment in a line: Binding affinity to adenosine A1 receptor.

The target of a further test is Adenosine receptor A2a (Homo sapiens, UniProt P29274). Kind of test: Binding affinity to adenosine A2A receptor.
The target in another test is T2, Adenosine receptor A2b (Homo sapiens, UniProt P29275).
T2 sequence (P29275 whole entry): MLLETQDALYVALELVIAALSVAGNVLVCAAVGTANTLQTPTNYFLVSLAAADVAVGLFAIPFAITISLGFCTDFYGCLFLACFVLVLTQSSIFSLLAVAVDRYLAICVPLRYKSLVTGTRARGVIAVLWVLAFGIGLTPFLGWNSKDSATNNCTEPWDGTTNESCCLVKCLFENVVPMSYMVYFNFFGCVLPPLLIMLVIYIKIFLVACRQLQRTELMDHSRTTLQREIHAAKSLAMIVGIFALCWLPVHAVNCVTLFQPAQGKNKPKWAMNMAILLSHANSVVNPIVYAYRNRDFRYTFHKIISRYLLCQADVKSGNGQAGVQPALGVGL
The experiment in a line: Binding affinity to adenosine A2B receptor.

A further test addresses T3, Adenosine receptor A3 (Homo sapiens, UniProt P0DMS8).
T3 sequence (P0DMS8 whole entry): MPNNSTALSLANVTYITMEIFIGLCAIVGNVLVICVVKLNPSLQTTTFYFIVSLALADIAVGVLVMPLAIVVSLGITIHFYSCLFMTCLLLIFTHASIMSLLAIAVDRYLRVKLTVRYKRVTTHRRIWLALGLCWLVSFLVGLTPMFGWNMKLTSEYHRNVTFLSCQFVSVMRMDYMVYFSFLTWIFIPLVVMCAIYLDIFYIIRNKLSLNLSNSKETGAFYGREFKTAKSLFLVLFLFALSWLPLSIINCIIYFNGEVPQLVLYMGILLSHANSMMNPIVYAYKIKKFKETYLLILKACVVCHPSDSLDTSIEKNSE
The experiment in a line: Binding affinity to adenosine A3 receptor.

Test [1] concerns the target T4, Adenosine receptor A1 (Rattus norvegicus) (UniProt P25099).
T4 sequence (whole entry): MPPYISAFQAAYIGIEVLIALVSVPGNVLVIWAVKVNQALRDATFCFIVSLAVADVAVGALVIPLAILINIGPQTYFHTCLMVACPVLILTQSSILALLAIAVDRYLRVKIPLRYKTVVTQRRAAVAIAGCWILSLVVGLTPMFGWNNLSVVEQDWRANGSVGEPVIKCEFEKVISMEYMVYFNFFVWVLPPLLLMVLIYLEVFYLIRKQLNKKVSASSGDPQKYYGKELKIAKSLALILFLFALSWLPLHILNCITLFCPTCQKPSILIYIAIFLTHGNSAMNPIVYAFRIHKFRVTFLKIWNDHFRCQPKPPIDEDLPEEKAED
Kind of test: Agonist activity at adenosine A1 receptor in embryonic rat H9C2 cell model of ischemia assessed as reduction of cell death at 10 nM. The format is functional, cell-based. The arrangement: scale not given: the % may be the effect or the level left.

In test [2] the target is T4, Adenosine receptor A1 (Rattus norvegicus). The experiment in a line: Reversal of agonistic activity at adenosine A1 receptor in embryonic rat H9C2 cell model of ischemia assessed as reduction of cardioprotective effect in presence of DPCPX A1 antagonist. The format is functional, tissue-based. To be noted: Heart.
The target in test [3] is Adenosine receptors; A1 & A3 (Homo sapiens) (UniProt P30542+P0DMS8). The experiment in a line: Selectivity for adenosine A1 receptor over adenosine A3 receptor.

Sequence of Adenosine receptor A2a (P29274 whole entry): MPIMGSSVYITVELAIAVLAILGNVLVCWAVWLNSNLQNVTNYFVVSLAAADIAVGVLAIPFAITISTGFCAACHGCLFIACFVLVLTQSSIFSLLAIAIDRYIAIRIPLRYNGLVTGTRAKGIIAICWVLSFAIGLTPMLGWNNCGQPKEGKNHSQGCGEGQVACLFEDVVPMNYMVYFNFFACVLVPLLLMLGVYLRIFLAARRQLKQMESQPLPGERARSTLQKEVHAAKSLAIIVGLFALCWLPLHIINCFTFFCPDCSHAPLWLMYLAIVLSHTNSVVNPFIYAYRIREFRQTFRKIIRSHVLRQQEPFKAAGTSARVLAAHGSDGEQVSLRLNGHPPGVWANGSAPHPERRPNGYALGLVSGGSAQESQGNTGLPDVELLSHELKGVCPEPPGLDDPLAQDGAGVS

A word on the Ki: it is a dissociation constant, usually derived from enzyme kinetics or from competition with a known ligand. For `CC(C)(C)c1cc(C(=O)NCCc2ccc(Nc3ncnc4c3ncn4[C@@H]3O[C@H](CO)[C@@H](O)[C@H]3O)cc2)cc(C(C)(C)C)c1O`, the inhibitory constant (Ki) on Adenosine receptor A1 is 0.032 µM; at Adenosine receptor A2a it was over 10 µM; at Adenosine receptor A2b, 8.58 µM; on Adenosine receptor A3, 0.084 µM. For the same compound, in test [1], the Activity was 73.2%. In test [2], the outcome was Active.
In the case of `CC1(C)c2ccc(C(=O)NCCCCCCNc3ncnc4c3ncn4[C@@H]3O[C@H](CO)[C@@H](O)[C@H]3O)cc2C(C)(C)N1[O]`, the Ki on Adenosine receptor A1 was 0.015 µM; at Adenosine receptor A2a, over 10 µM; on Adenosine receptor A2b, over 10 µM; on Adenosine receptor A3, 0.089 µM.
With `CC(C)(C)c1cc(C(=O)NCCCCCCNc2ncnc3c2ncn3[C@@H]2O[C@H](CO)[C@@H](O)[C@H]2O)cc(C(C)(C)C)c1O`, the inhibition constant Ki at Adenosine receptor A1 is 0.04 µM; at Adenosine receptor A2a it was over 10 µM; at Adenosine receptor A2b, over 10 µM; at Adenosine receptor A3 it was 0.014 µM.
Turning to `CC1(C)NC(C)(C)c2cc(Nc3ncnc4c3ncn4[C@@H]3O[C@H](CO)[C@@H](O)[C@H]3O)ccc21`, the Ki is 0.29 µM on Adenosine receptor A1, over 10 µM at Adenosine receptor A2a, over 10 µM at Adenosine receptor A2b and 0.28 µM at Adenosine receptor A3.
Regarding `OC[C@H]1O[C@@H](n2cnc3c(NC4CCCC4)ncnc32)[C@H](O)[C@@H]1O`, the Activity in test [1] came to 86.2%. Moreover, the outcome in test [2] was Active.
Consider `CC1(C)c2ccc(Nc3ncnc4c3ncn4[C@@H]3O[C@H](CO)[C@@H](O)[C@H]3O)cc2C(C)(C)N1[O]`, for which the Ki on Adenosine receptor A1 was 0.1 µM; at Adenosine receptor A2a it was over 10 µM; on Adenosine receptor A2b it was over 10 µM; at Adenosine receptor A3, 0.79 µM.
Turning to `CC1(C)CC(Nc2ncnc3c2ncn3[C@@H]2O[C@H](CO)[C@@H](O)[C@H]2O)CC(C)(C)N1`, the inhibition constant (Ki) at Adenosine receptor A1 is 1.58 µM; on Adenosine receptor A2a, over 10 µM; at Adenosine receptor A2b, over 10 µM; on Adenosine receptor A3 it was 25 µM.
Consider `CC1(C)c2ccc(C(=O)NCCc3ccc(Nc4ncnc5c4ncn5[C@@H]4O[C@H](CO)[C@@H](O)[C@H]4O)cc3)cc2C(C)(C)N1[O]`, for which the Ki on Adenosine receptor A1 is 0.007 µM; on Adenosine receptor A2a, over 10 µM; on Adenosine receptor A2b it was 1.45 µM; on Adenosine receptor A3, 0.23 µM. The Ratio Ki in test [3] was determined as 3. Further, the Activity in test [1] was determined as 54.7%. In addition, the result in test [2] was Active.
In the case of `CC1(C)CC(Nc2ncnc3c2ncn3[C@@H]2O[C@H](CO)[C@@H](O)[C@H]2O)CC(C)(C)N1[O]`, the Ki was 0.05 µM at Adenosine receptor A1, over 10 µM on Adenosine receptor A2a, over 10 µM at Adenosine receptor A2b and 8.56 µM on Adenosine receptor A3.
Take `CC1(C)CC(CNc2ncnc3c2ncn3[C@@H]2O[C@H](CO)[C@@H](O)[C@H]2O)C(C)(C)N1[O]` (stereo not given in full): the inhibition constant (Ki) at Adenosine receptor A1 was 0.05 µM; at Adenosine receptor A2a, over 10 µM; on Adenosine receptor A2b, over 10 µM; at Adenosine receptor A3, 21.2 µM. The Activity in test [1] was 84.8%. Further, in test [2], the outcome was Active.
